We go through one compound from patent EP4692091A1, “CA[…], AND PHARMACEUTICAL COMPOSITION, PREPARATION METHOD THEREFOR AND USE THEREOF” (Changchun Genescience Pharmaceutical Co., Ltd., priority 2023, dated 2024).

In one data set the test system is SK-BR-3. The data set is described as follows: Inhibition of proliferation of SK-BR-3 cells by compounds (CellTiter-Glo, 72 h). Format: cell-based. Conditions: Homo sapiens, SK-BR-3, 72 h, SK-BR-3, 72 h incubation. In short, it runs like this: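 SK-BR-3 cells plated in 384-well format, allowed to adhere, then exposed to compound (0.33% DMSO final) for 72 h at 37 °C, 5% CO2. Viability read by CellTiter-Glo luminescence; IC50 from four-parameter nonlinear fit.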

The next data set relates to MDA-MB-468. The data set is described as follows: Inhibition of proliferation of MDA-MB-468 cells by test compounds (CellTiter-Glo, 72 h). Format: cell-based. Conditions: Homo sapiens, MDA-MB-468, 72 h, MDA-MB-468, 72 h incubation. In short, it runs like this:
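Cells plated, allowed to adhere, then treated with compounds (final DMSO 0.33%) for 72 h at 37°C. Viability read by CellTiter-Glo luminescence after 30 min at room temperature; IC50 from four-parameter nonlinear fit.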

The test system of the next data set is NCI-N87. Kind of data set: Inhibition of proliferation of NCI-N87 cells by test compounds (CellTiter-Glo, 72 h). Conditions: Homo sapiens, NCI-N87, 72 h, NCI-N87, 72 h incubation. Format: cell-based. In short, it runs like this:
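NCI-N87 cells were treated after adhesion with compound (final DMSO 0.33%) for 72 h at 37°C. Viability was read as CellTiter-Glo luminescence, and IC50 came from a four-parameter nonlinear fit.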

A short description of data set [1]: Pharmacokinetic test in SD rats. Format: in vivo. Conditions: rat, 2 mg/kg, male SD rats, single intravenous injection, 2 mpk, plasma. The method, then: After a single intravenous injection (dose: 2 mpk) of the compounds 6-2, 11-2, 17-2, and Dxd into male SD rats (blood collection time points: 0.083 h, 0.25 h, 0.5 h, 1 h, 2 h, 4 h, 8 h, and 24 h after IV administration, totaling 8 blood collection time points), average pharmacokinetic parameters in the plasma are as shown in Table 5: Table 5 Pharmacokinetic test result of representative compounds

Data set [2] can be described thus: Stability of compounds in human plasma. Particulars: 37°C, 5 µmol/L, read-out: Residual percentage (%). Format: in vitro ADME.
The target of another data set is CYP2D6 (Homo sapiens, UniProt P10635). Kind of data set: CYP inhibition in human hepatomicrosomes, CYP2D6.
Chain of CYP2D6 (P10635 whole entry): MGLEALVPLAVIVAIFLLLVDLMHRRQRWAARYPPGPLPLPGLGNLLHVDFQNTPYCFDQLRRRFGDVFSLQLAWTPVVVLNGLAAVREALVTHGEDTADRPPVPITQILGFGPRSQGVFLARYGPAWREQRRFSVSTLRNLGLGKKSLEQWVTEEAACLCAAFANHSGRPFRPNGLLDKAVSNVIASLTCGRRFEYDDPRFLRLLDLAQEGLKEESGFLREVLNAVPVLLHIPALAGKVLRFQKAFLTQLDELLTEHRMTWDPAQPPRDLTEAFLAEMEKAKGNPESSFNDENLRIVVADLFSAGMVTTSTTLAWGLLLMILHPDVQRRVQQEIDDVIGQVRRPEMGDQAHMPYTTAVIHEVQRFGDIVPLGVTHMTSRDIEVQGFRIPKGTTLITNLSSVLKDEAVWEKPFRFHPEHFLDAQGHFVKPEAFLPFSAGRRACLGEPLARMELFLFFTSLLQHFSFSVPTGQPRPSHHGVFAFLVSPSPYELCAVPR
The target of the next data set is CYP3A4 (Homo sapiens, UniProt P08684). Kind of data set: CYP inhibition in human hepatomicrosomes, CYP3A4.
Chain of CYP3A4 (P08684 whole entry): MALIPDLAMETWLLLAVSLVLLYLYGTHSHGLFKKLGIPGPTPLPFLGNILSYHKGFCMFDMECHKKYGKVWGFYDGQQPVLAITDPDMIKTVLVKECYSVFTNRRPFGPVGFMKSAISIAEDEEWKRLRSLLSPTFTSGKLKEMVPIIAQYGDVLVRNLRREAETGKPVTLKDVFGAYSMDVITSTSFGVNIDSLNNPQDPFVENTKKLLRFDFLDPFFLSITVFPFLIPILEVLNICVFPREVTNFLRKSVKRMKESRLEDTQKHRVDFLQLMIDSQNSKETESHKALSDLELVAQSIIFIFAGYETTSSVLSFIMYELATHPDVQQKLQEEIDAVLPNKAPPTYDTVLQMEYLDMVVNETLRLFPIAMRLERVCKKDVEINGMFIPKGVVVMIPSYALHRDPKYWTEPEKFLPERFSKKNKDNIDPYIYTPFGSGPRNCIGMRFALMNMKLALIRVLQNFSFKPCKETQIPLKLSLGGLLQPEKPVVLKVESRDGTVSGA

pIC50: −log10 of the molar value. Where two headings read alike, the source gives them in different places.

For the compound `CC[C@@]1(O)C(=O)OCc2c1cc1n(c2=O)Cc2c-1nc1cc(F)c(C)c3c1c2[C@@H](NC(=O)CO)CC3` [Dxd], the pIC50 is 7.96 in the data set on SK-BR-3; 8.34 in the data set on MDA-MB-468; 7.96 in the data set on NCI-N87; below 4.52 at CYP2D6; below 4.52 against CYP3A4. Besides, the area under the curve AUC(0-inf) in data set [1] came to 302 ng·h/mL. The exposure AUC(0-t) in data set [1] was 301 ng·h/mL. For the same compound, the C0 in data set [1] came out at 748 ng/mL. In data set [1], this compound came in with a clearance of 113 mL/min/kg. In data set [1], this compound showed a half-life of 23.4 min. For the same compound, the Vd in data set [1] (read-out: Vss) is 2.7 L/kg. The remaining at 4 h, 5 µM in data set [2] was 83.6%. In addition, the half-inhibitory concentration (IC50) at CYP3A4 (read-out: 3A4M (IC50 µM), human hepatomicrosomes, substrate Midazolam) was above 30 µM.
